Experimental data taken from patent US9233933B2, “4,4-disubstituted-1,4-dihydropyrimidines and the use thereof as medicaments for the treatment of hepatitis B” (priority 2012, dated 2016).
Counter-ions that a name gives are not always drawn.

Assays:
HBV [1] = test: anti HBV activity in HepG2.117 cell line (Tet-off, inducibly HBV producing), intracellular HBV DNA by realtime PCR; assay type: cell-based, Hepatitis B virus; conditions: HepG2.117 cells, 3 days of treatment, intracellular HBV DNA, read-out: HepG2 117 EC50
in vitro = conditions: human, HepG2 4 days CC50
HBV [2] = test: anti-HBV activity in stable transfected HepG2.2.15 cell line, HBV DNA from secreted virions by realtime PCR; assay type: cell-based, Hepatitis B virus; conditions: HepG2.2.15 cells, 6 days of treatment, secreted virion HBV DNA, read-out: HBV-HepG2 2.15 EC50
[3] = Cytotoxicity in HepG2 cells using CellTiter-Blue, same incubation period as HepG2.2.15 assay; assay type: cell-based; conditions: human, HepG2 6 days CC50
Experimental: (§1) Cytotoxicity of the compounds was tested in HepG2 cells using CellTiter-Blue, with the same incubation period and dose range as in the HepG2.2.15 assay.

HepG2 cells = test: as above; assay type: cell-based; conditions: HepG2 cells, 6 days, CellTiter-Blue; read-out: HepG2 6 days CC50
Experimental: as §1

[4] = Hepatitis B virus, HepG2.117, 72 h
[5] = Hepatitis B virus, HepG2.2.15, 144 h

Compound	EC50 (HBV [1]; [4])	CC50 at 4 days (in vitro)	EC50 (HBV [2]; [5])	CC50 at 6 days [3]	EC50 (HBV [1])	EC50 (HBV [2])	CC50 (HepG2 cells)
COC(=O)C1=C(CN2CCOCC2)NC(c2ccccn2)=NC12CCc1ccccc12 (stereo not shown) [Compound 89]	0.47 µM	> 100 µM	0.604 µM	> 100 µM	–	–	–
COC(=O)C1=C(CN2CCOCC2)NC(c2ccccn2)=NC12CCc1ccc(F)cc12 (single isomer, unassigned) [Compound 96a]	–	> 100 µM	–	> 100 µM	0.3 µM	0.65 µM	–
COC(=O)C1=C(CN2CCOCC2)NC(c2ccccn2)=NC12C=Cc1cc(F)ccc12 (stereo not shown) [Compound 145]	0.62 µM	> 25 µM	0.36 µM	–	–	–	–
COC(=O)C1=C(C)NC(c2ccccn2)=NC12CCOc1ccccc12 (stereo not shown) [Compound 85]	> 50 µM	> 50 µM	> 100 µM	> 100 µM	–	–	–
COC(=O)C1=C(CN2CCOCC2)NC(c2ccccn2)=NC12CCC(C)(C)c1ccccc12 (stereo not shown) [Compound 72]	72 µM	> 100 µM	54 µM	71.1 µM	–	–	–
COC(=O)C1=C(CN2CCOCC2)NC(c2ccccn2)=NC12CC(C)c1cc(F)ccc12 (stereo not shown) [Compound 146]	2.62 µM	> 25 µM	1.36 µM	–	–	–	–
COC(=O)C1=C(CN2CCOCC2)NC(c2ncc(F)cc2F)=NC12CC(C)(C)c1ccccc12 (stereo not shown) [Compound 93]	81.2 µM	> 100 µM	53.4 µM	41.5 µM	–	–	–
COC(=O)C1=C(CN2CCOCC2)NC(c2ccccn2)=NC12CCCc1cc(F)ccc12 (stereo not shown) [Compound 74]	1.33 µM	> 100 µM	2.06 µM	78.3 µM	–	–	–
CCOC(=O)C1=C(CN2CCOCC2)NC(c2ccccn2)=NC12CCCc1ccc(F)cc12 (stereo not shown) [Compound 59]	46.7 µM	> 100 µM	59.5 µM	68.9 µM	–	–	–
COC(=O)C1=C(C)NC(c2ncc(F)cc2F)=NC12CCc1c2ccc(F)c1F (stereo not shown) [Compound 100]	0.506 µM	> 100 µM	0.546 µM	> 100 µM	–	–	–
CCOC(=O)C1=C(CN2CCOCC2)NC(c2ccccn2)=NC1(c1ccc(F)cc1)C(F)(F)F (racemic) [Compound 34]	–	–	–	–	–	16.2 µM	20 µM
COC(=O)C1=C(C)NC(c2nccs2)=NC12C(F)=C(F)c1cc(F)ccc12 (racemic) [Compound 166]	14.2 µM	> 25 µM	0.24 µM	–	–	–	–
COC(=O)C1=C(CN2CCOCC2)NC(c2ncc(F)cc2F)=NC12CCc1c2ccc(F)c1F (stereo not shown) [Compound 101]	0.073 µM	> 50 µM	< 0.098 µM	> 25 µM	–	–	–
COC(=O)C1=C(C)NC(c2ncc(F)cc2F)=NC12C(=O)N(C)c1cc(F)ccc12 (stereo not shown) [Compound 118]	> 50 µM	> 50 µM	40.7 µM	> 100 µM	–	–	–
COC(=O)C1=C(CN2CCOCC2)NC(c2ccccn2)=NC12c1ccccc1OC2(F)F (stereo not shown) [Compound 124]	2.41 µM	> 25 µM	13 µM	48.4 µM	–	–	–
COC(=O)C1=C(CN2CCOCC2)NC(c2ccccn2)=NC12CCc1ccc(F)cc12 (stereo not shown) [Compound 96]	0.94 µM	97 µM	0.954 µM	> 100 µM	–	–	–
COC(=O)C1=C(CN2CCOCC2)NC(c2ccccn2)=N[C@@]12c1ccc(F)cc1C[C@H]2F (racemic) [Compound 175]	0.146 µM	> 25 µM	< 0.195 µM	–	–	–	–
COC(=O)C1=C(CN2CCOCC2)NC(c2ccccn2)=NC12CCc1c(F)cccc12 (single isomer, unassigned) [Compound 66a]	–	> 100 µM	–	> 100 µM	0.066 µM	< 0.391 µM	–
COC(=O)C1=C(C)NC(c2ccccn2)=NC12c1ccccc1CC2(F)F (stereo not shown) [Compound 111]	> 50 µM	> 50 µM	81.8 µM	> 100 µM	–	–	–

Compound	EC50 (HBV [1]; [4])	CC50 at 4 days (in vitro)	EC50 (HBV [2]; [5])	CC50 at 6 days [3]	EC50 (HBV [1])	EC50 (HBV [2])	CC50 (HepG2 cells)
COC(=O)C1=C(C)NC(c2ncc(F)cc2F)=NC12C(=O)Nc1cc(F)ccc12 (stereo not shown) [Compound 123]	> 25 µM	> 25 µM	> 100 µM	–	–	–	–
COC(=O)C1=C(C)NC(c2nccs2)=NC12C(F)=C(F)c1cc(F)ccc12 (single isomer, unassigned) [Compound 166a]	> 25 µM	> 25 µM	–	–	–	> 50 µM	–
COC(=O)C1=C(CN2CCOCC2)NC(c2ccccn2)=NC12c1ccc(F)cc1C(F)C2(F)F (single isomer, unassigned) [Compound 168A]	–	> 25 µM	9.64 µM	–	3.51 µM	–	–
COC(=O)C1=C(C)NC(c2ncc(F)cc2F)=NC12c1ccccc1CC2(F)F (stereo not shown) [Compound 115]	> 25 µM	> 25 µM	> 100 µM	> 100 µM	–	–	–
CCOC(=O)C1=C(CN2CCOCC2)NC(c2ccccn2)=NC12CCc1cc(F)ccc12 (stereo not shown) [Compound 39]	0.41 µM	> 100 µM	0.405 µM	62.9 µM	–	–	–
COC(=O)C1=C(C)NC(c2ncc(F)cc2F)=NC12CC(C)(C)c1ccccc12 (single isomer, unassigned) [Compound 134a]	> 50 µM	> 50 µM	–	53 µM	–	91.2 µM	–
COC(=O)C1=C(C)NC(c2ncc(F)cc2F)=NC12c1ccccc1OC2(F)F (stereo not shown) [Compound 106]	> 25 µM	> 25 µM	98.4 µM	> 100 µM	–	–	–
COC(=O)C1=C(C)NC(c2ncc(F)cc2F)=NC12c1ccccc1OC2(F)F (single isomer, unassigned) [Compound 106a]	> 50 µM	> 50 µM	–	> 100 µM	–	> 100 µM	–
COC(=O)C1=C(C)NC(c2ncc(F)cc2F)=NC12CCCc1cc(F)ccc12 (stereo not shown) [Compound 80]	25.1 µM	> 50 µM	–	51.1 µM	–	–	–
COC(=O)C1=C(CN2CCOCC2)NC(c2ccccn2)=NC12c1ccccc1CC2(F)F (stereo not shown) [Compound 110]	6.14 µM	> 50 µM	10.7 µM	> 100 µM	–	–	–
COC(=O)C1=C(C)NC(c2ccccn2)=NC12CCc1ccccc12 (stereo not shown) [Compound 90]	22.7 µM	> 50 µM	5.82 µM	> 50 µM	–	–	–
COC(=O)C1=C(CN2CCOCC2)NC(c2ccccn2)=NC12CCOc1ccccc12 (stereo not shown) [Compound 86]	5.49 µM	> 100 µM	8.64 µM	> 100 µM	–	–	–
COC(=O)C1=C(CN2CCOCC2)NC(c2ccccn2)=NC12CC(=O)c1cc(F)ccc12 (stereo not shown) [139 •TFA]	0.707 µM	> 25 µM	0.99 µM	–	–	–	–
CCOC(=O)C1=C(CN2CCOCC2)NC(c2ccccn2)=NC12CCC(C)(C)c1ccccc12 (stereo not shown) [Compound 56]	52.6 µM	> 100 µM	35.2 µM	36.4 µM	–	–	–
COC(=O)C1=C(CN2CCOCC2)NC(c2ccccn2)=NC12CC(O)c1cc(F)ccc12 (stereo not shown) [Compound 144]	4.94 µM	> 10 µM	–	–	–	–	–
COC(=O)C1=C(C)NC(c2nccs2)=NC12C(F)=Cc1c2ccc(F)c1F (single isomer, unassigned) [Compound 174a]	–	> 25 µM	–	–	8.97 µM	–	–
COC(=O)C1=C(CN2CCOCC2)NC(c2ccccn2)=NC12CCc1c(F)cccc12 (racemic) [Compound 66]	0.17 µM	> 25 µM	0.207 µM	89.3 µM	–	–	–
COC(=O)C1=C(CN2CCOCC2)NC(c2ccccn2)=NC12C(F)=Cc1ccccc12 (stereo not shown) [Compound 112]	0.41 µM	> 50 µM	0.624 µM	> 100 µM	–	–	–
